The values below come from US7368578B2, “Five-membered heterocyclic compounds” (Takeda Pharmaceutical Company Limited, priority 2002, dated 2008).

Usually melting point stands for the temperature, or range, at which the solid turns liquid. Compound `COc1cc(COc2nn(C)cc2CO)ccc1OCc1nc(-c2ccccc2)oc1C` [Example 266, (3-{[3-methoxy-4-(5-methyl-2-phenyl-1,3-oxazol-4-ylmethoxy)benzyl]oxy}-1-methyl-1H-pyrazol-4-yl)methanol] had a melting point of 108 to 109 °C.

`COc1cc(COc2nn(C)cc2C=O)ccc1OCc1nc(-c2ccccc2)oc1C` [Example 267, 3-{[3-methoxy-4-(5-methyl-2-phenyl-1,3-oxazol-4-ylmethoxy)benzyl]oxy}-1-methyl-1H-pyrazole-4-carbaldehyde] displayed a melting point of 123 to 124 °C.

For `COc1cc(COc2nn(C)cc2C(N)=O)ccc1OCc1nc(-c2ccccc2)oc1C` [Example 268, 3-{[3-methoxy-4-(5-methyl-2-phenyl-1,3-oxazol-4-ylmethoxy)benzyl]oxy}-1-methyl-1H-pyrazole-4-carboxamide], the melting point was 168 to 169 °C.

Turning to `COc1cc(COc2nn(C)cc2C(=O)N(C)OC)ccc1OCc1nc(-c2ccccc2)oc1C` [Example 269, N-methoxy-N-methyl-3-{[3-methoxy-4-(5-methyl-2-phenyl-1,3-oxazol-4-ylmethoxy)benzyl]oxy}-1-methyl-1H-pyrazole-4-carboxamide], the melting point was 138 to 139 °C.

The compound `COc1cc(COc2nn(C)cc2C(C)=O)ccc1OCc1nc(-c2ccccc2)oc1C` [Example 270, 1-(3-{[3-methoxy-4-(5-methyl-2-phenyl-1,3-oxazol-4-ylmethoxy)benzyl]oxy}-1-methyl-1H-pyrazol-4-yl)ethanone] displayed a melting point of 170 to 171 °C.

In turn, `COc1cc(COc2nn(C)cc2C(C)O)ccc1OCc1nc(-c2ccccc2)oc1C` (stereo not drawn) [Example 271, 1-(3-{[3-methoxy-4-(5-methyl-2-phenyl-1,3-oxazol-4-ylmethoxy)benzyl]oxy}-1-methyl-1H-pyrazol-4-yl)ethanol] yielded a melting point of 94 to 95 °C.

Regarding `CCOC(=O)c1cn(-c2ccccc2)nc1OCc1ccc(OCc2nc(-c3ccccc3)oc2C)c(OC)c1` [Example 272, ethyl 3-{[3-methoxy-4-(5-methyl-2-phenyl-1,3-oxazol-4-ylmethoxy)benzyl]oxy}-1-phenyl-1H-pyrazole-4-carboxylate], the melting point was in the range of 160 to 161 °C.

As to `COc1cc(COc2nn(-c3ccccc3)cc2C(=O)O)ccc1OCc1nc(-c2ccccc2)oc1C` [Example 273, 3-{[3-methoxy-4-(5-methyl-2-phenyl-1,3-oxazol-4-ylmethoxy)benzyl]oxy}-1-phenyl-1H-pyrazole-4-carboxylic acid], the melting point is 209 to 210 °C.

For `COc1cc(COc2nn(-c3ccccc3)cc2C=O)ccc1OCc1nc(-c2ccccc2)oc1C` [Example 275, 3-{[3-methoxy-4-(5-methyl-2-phenyl-1,3-oxazol-4-ylmethoxy)benzyl]oxy}-1-phenyl-1H-pyrazole-4-carbaldehyde], the melting point lay in the range of 142 to 143 °C.

Take `COc1cc(COc2nn(-c3ccccc3)cc2C(N)=O)ccc1OCc1nc(-c2ccccc2)oc1C` [Example 276, 3-{[3-methoxy-4-(5-methyl-2-phenyl-1,3-oxazol-4-ylmethoxy)benzyl]oxy}-1-phenyl-1H-pyrazole-4-carboxamide]: the melting point lay within 190 to 191 °C.

In turn, `COc1cc(CC(=O)Nc2nn(-c3ccccc3)cc2C=O)ccc1OCc1nc(-c2ccccc2)oc1C` [Example 277, N-(4-formyl-1-phenyl-1H-pyrazol-3-yl)-2-{3-methoxy-4-[(5-methyl-2-phenyl-1,3-oxazol-4-yl)methoxy]phenyl}acetamide] came in with a melting point of 156 to 158 °C.

The compound `COc1cc(COc2nn(-c3ccccc3)cc2C#N)ccc1OCc1nc(-c2ccccc2)oc1C` [Example 278, 3-{[3-methoxy-4-(5-methyl-2-phenyl-1,3-oxazol-4-ylmethoxy)benzyl]oxy}-1-phenyl-1H-pyrazole-4-carbonitrile] came in with a melting point of 174 to 175 °C.

`COc1cc(COc2nc(-c3ccccc3)ncc2C=O)ccc1OCc1nc(-c2ccco2)oc1C` [Example 280, 4-[(4-{[2-(2-furyl)-5-methyl-1,3-oxazol-4-yl]methoxy}-3-methoxybenzyl)oxy]-2-phenylpyrimidine-5-carbaldehyde] showed a melting point of 143 to 144 °C.

Compound `COc1cc(COc2nn(-c3ccccc3)cc2/C=C/C(=O)O)ccc1OCc1nc(-c2ccccc2)oc1C` [Example 281, (E)-3-(3-{[3-methoxy-4-(5-methyl-2-phenyl-1,3-oxazol-4-ylmethoxy)benzyl]oxy}-1-phenyl-1H-pyrazol-4-yl)-2-propenoic acid] yielded a melting point of 188 to 189 °C.

In the case of `COc1cc(COc2nn(-c3ccccc3)cc2CC#N)ccc1OCc1nc(-c2ccccc2)oc1C` [Example 283, (3-{[3-methoxy-4-(5-methyl-2-phenyl-1,3-oxazol-4-ylmethoxy)benzyl]oxy}-1-phenyl-1H-pyrazol-4-yl)acetonitrile], the melting point fell in the range of 137 to 138 °C.

Turning to `COc1cc(C(=O)Nc2nn(-c3ccccc3)cc2C=O)ccc1OCc1nc(-c2ccco2)oc1C` [Example 290, N-(4-formyl-1-phenyl-1H-pyrazol-3-yl)-4-{[2-(2-furyl)-5-methyl-1,3-oxazol-4-yl]methoxy}-3-methoxybenzamide], the melting point is 212 to 213 °C.

Turning to `COC(=O)c1cc(OCc2ccc(OCc3nc(-c4ccccc4)oc3C)c(OC)c2)nn1-c1ccccc1` [Example 291, methyl 3-{[3-methoxy-4-(5-methyl-2-phenyl-1,3-oxazol-4-ylmethoxy)benzyl]oxy}-1-phenyl-1H-pyrazole-5-carboxylate], the melting point was 143 to 144 °C.

Take `COc1cc(COc2cc(C(=O)O)n(-c3ccccc3)n2)ccc1OCc1nc(-c2ccccc2)oc1C` [Example 292, 3-{[3-methoxy-4-(5-methyl-2-phenyl-1,3-oxazol-4-ylmethoxy)benzyl]oxy}-1-phenyl-1H-pyrazole-5-carboxylic acid]: the melting point fell in the range of 192 to 193 °C.

`COc1cc(COc2cc(CO)n(-c3ccccc3)n2)ccc1OCc1nc(-c2ccccc2)oc1C` [Example 293, (3-{[3-methoxy-4-(5-methyl-2-phenyl-1,3-oxazol-4-ylmethoxy)benzyl]oxy}-1-phenyl-1H-pyrazol-5-yl)methanol]: the melting point lay within 146 to 147 °C.

For the compound `COc1cc(COc2cc(C=O)n(-c3ccccc3)n2)ccc1OCc1nc(-c2ccccc2)oc1C` [Example 294, 3-{[3-methoxy-4-(5-methyl-2-phenyl-1,3-oxazol-4-ylmethoxy)benzyl]oxy}-1-phenyl-1H-pyrazole-5-carbaldehyde], the melting point fell in the range of 119 to 120 °C.

In turn, `CCOC(=O)/C=C/c1cn(-c2ccc(C(F)(F)F)cc2)nc1OCc1ccc(OCc2nc(-c3ccccc3)oc2C)c(OC)c1` [Example 295, ethyl (2E)-3-{3-({3-methoxy-4-[(5-methyl-2-phenyl-1,3-oxazol-4-yl)methoxy]benzyl}oxy)-1-[4-(trifluoromethyl)phenyl]-1H-pyrazol-4-yl}-2-propenoate] showed a melting point of 205 to 206 °C.

`COc1cc(COc2nn(-c3ccc(C(F)(F)F)cc3)cc2/C=C/CO)ccc1OCc1nc(-c2ccccc2)oc1C` [Example 296, (2E)-3-{3-({3-methoxy-4-[(5-methyl-2-phenyl-1,3-oxazol-4-yl)methoxy]benzyl}oxy)-1-[4-(trifluoromethyl)phenyl]-1H-pyrazol-4-yl}-2-propen-1-ol]: the melting point fell in the range of 118 to 119 °C.

`COc1cc(COc2nn(-c3ccc(C(F)(F)F)cc3)cc2/C=C/C(=O)OCOC(=O)C(C)(C)C)ccc1OCc1nc(-c2ccccc2)oc1C` [Example 297, [(2,2-dimethylpropanoyl)oxy]methyl (2E)-3-{3-({3-methoxy-4-[(5-methyl-2-phenyl-1,3-oxazol-4-yl)methoxy]benzyl}oxy)-1-[4-(trifluoromethyl)phenyl]-1H-pyrazol-4-yl}-2-propenoate] showed a melting point of 131 to 132 °C.

`COc1cc(COc2cc(C#N)n(-c3ccccc3)n2)ccc1OCc1nc(-c2ccccc2)oc1C` [Example 298, 3-{[3-methoxy-4-(5-methyl-2-phenyl-1,3-oxazol-4-ylmethoxy)benzyl]oxy}-1-phenyl-1H-pyrazole-5-carbonitrile] had a melting point of 120 to 121 °C.

`CCOC(=O)/C=C/c1cc(OCc2ccc(OCc3nc(-c4ccccc4)oc3C)c(OC)c2)nn1-c1ccccc1` [Example 299, ethyl (E)-3-(3-{[3-methoxy-4-(5-methyl-2-phenyl-1,3-oxazol-4-ylmethoxy)benzyl]oxy}-1-phenyl-1H-pyrazol5-yl)-2-propenoate] registered a melting point of 121 to 122 °C.

With `COc1cc(COc2cc(/C=C/C(=O)O)n(-c3ccccc3)n2)ccc1OCc1nc(-c2ccccc2)oc1C` [Example 300, (E)-3-(3-{[3-methoxy-4-(5-methyl-2-phenyl-1,3-oxazol-4-ylmethoxy)benzyl]oxy}-1-phenyl-1H-pyrazol5-yl)-2-propenoic acid], the melting point fell in the range of 194 to 195 °C.

`COc1cc(CC(=O)Nc2nn(-c3ccccc3)cc2C=O)ccc1OCc1nc(-c2ccco2)oc1C` [Example 303, N-(4-formyl-1-phenyl-1H-pyrazol-3-yl)-2-(4-{[2-(2-furyl)-5-methyl-1,3-oxazol-4-yl]methoxy}-3-methoxyphenyl)acetamide] had a melting point of 190 to 191 °C.

With `Cc1oc(-c2ccccc2)nc1COc1ccc(OCc2oc(-c3ccccc3)nc2C=O)cc1` [Example 304, 5-({4-[(5-methyl-2-phenyl-1,3-oxazol-4-yl)methoxy]phenoxy}methyl)-2-phenyl-1,3-oxazole-4-carbaldehyde], the melting point was 127 to 128 °C.

`COc1cc(COc2nc(-c3ccccc3)ncc2C(=O)O)ccc1OCc1nc(-c2ccco2)oc1C` [Example 305, 4-[(4-{[2-(2-furyl)-5-methyl-1,3-oxazol-4-yl]methoxy}-3-methoxybenzyl)oxy]-2-phenylpyrimidine-5-carboxylic acid] registered a melting point of 163 to 164 °C.

In the case of `COC(=O)c1cccc(-c2nc(COc3ccc(COc4nn(-c5ccccc5)cc4/C=C/c4nc(N5CCOCC5)sc4C)cc3OC)c(C)o2)c1` [Example 309, methyl 3-[4-({2-methoxy-4-[({4-[(E)-2-(5-methyl-2-morpholin-4-yl-1,3-thiazol-4-yl)ethenyl]-1-phenyl-1H-pyrazol-3-yl}oxy)methyl]phenoxy}methyl)-5-methyl-1,3-oxazol-2-yl]benzoate], the melting point is 183 to 184 °C.
